Source: the NIST ThermoML archive (doi:10.1021/je300045c)
Values joined by “and” are separate entries in the source; they are usually repeats but may differ in a detail not shown here. Identical values can stand only once. Numbers after ± are expanded uncertainties.

What was measured:
[1] = molar heat capacity at constant pressure; wn = mass fraction of the nth substance listed; settings: 358.15 K, 101 kPa, Liquid, Small sample (50 mg) DSC
[2] = xn = mol fraction of the nth substance listed; settings: 358.15 K, 101 kPa, Liquid; for viscosity: Falling or rolling sphere viscometry; for electrical conductivity: Alternating current cell with electrodes; for mass density: Vibrating tube method
[3] = 358.15 K, 101 kPa, Liquid

O [water] + CCCCn1cc[n+](C)c1.CS(=O)(=O)[O-]
molar heat capacity at constant pressure ([1]; w1 = 1): 4.12 ± 0.23 J/K/mol | viscosity ([2]; x1 = 1): 0.334 ± 0.033 mPa·s

CCCCn1cc[n+](C)c1.CS(=O)(=O)[O-] [1-butyl-3-methylimidazolium methanesulfonate]
electrical conductivity ([3]; Alternating current cell with electrodes): 0.805 ± 0.14 S/m | mass density ([3]; Vibrating tube method): 1134 ± 2 kg/m3

CCCCn1cc[n+](C)c1.CS(=O)(=O)[O-] [1-butyl-3-methylimidazolium methanesulfonate] + O
molar heat capacity at constant pressure ([1]; w2 = 0.002): 1.768 ± 0.22 J/K/mol | molar heat capacity at constant pressure ([1]; w2 = 0.014): 1.793 ± 0.22 J/K/mol | molar heat capacity at constant pressure ([1]; w2 = 0.032): 1.996 ± 0.22 J/K/mol and 2.027 ± 0.22 J/K/mol | molar heat capacity at constant pressure ([1]; w2 = 0.087): 2.267 ± 0.22 J/K/mol | molar heat capacity at constant pressure ([1]; w2 = 0.097): 2.252 ± 0.22 J/K/mol | molar heat capacity at constant pressure ([1]; w2 = 0.15): 2.244 ± 0.22 J/K/mol | molar heat capacity at constant pressure ([1]; w2 = 0.233): 2.448 ± 0.22 J/K/mol | molar heat capacity at constant pressure ([1]; w2 = 0.429): 2.926 ± 0.22 J/K/mol | electrical conductivity ([2]; x2 = 0): 0.805 ± 0.14 S/m | electrical conductivity ([2]; x2 = 0.012): 0.821 ± 0.14 S/m | electrical conductivity ([2]; x2 = 0.028): 0.84 ± 0.14 S/m | electrical conductivity ([2]; x2 = 0.049): 0.871 ± 0.14 S/m | electrical conductivity ([2]; x2 = 0.074): 0.907 ± 0.14 S/m | electrical conductivity ([2]; x2 = 0.106): 0.955 ± 0.14 S/m | electrical conductivity ([2]; x2 = 0.131): 1 ± 0.14 S/m | electrical conductivity ([2]; x2 = 0.147): 1.03 ± 0.14 S/m | electrical conductivity ([2]; x2 = 0.156): 1.06 ± 0.14 S/m | electrical conductivity ([2]; x2 = 0.185): 1.12 ± 0.14 S/m | electrical conductivity ([2]; x2 = 0.203): 1.14 ± 0.14 S/m | electrical conductivity ([2]; x2 = 0.217): 1.2 ± 0.14 S/m | electrical conductivity ([2]; x2 = 0.252): 1.29 ± 0.14 S/m | electrical conductivity ([2]; x2 = 0.27): 1.3 ± 0.14 S/m | electrical conductivity ([2]; x2 = 0.306): 1.44 ± 0.14 S/m | electrical conductivity ([2]; x2 = 0.358): 1.61 ± 0.14 S/m | electrical conductivity ([2]; x2 = 0.363): 1.59 ± 0.14 S/m | electrical conductivity ([2]; x2 = 0.423): 1.87 ± 0.14 S/m | electrical conductivity ([2]; x2 = 0.457): 2 ± 0.14 S/m | electrical conductivity ([2]; x2 = 0.495): 2.22 ± 0.14 S/m | electrical conductivity ([2]; x2 = 0.535): 2.46 ± 0.14 S/m | electrical conductivity ([2]; x2 = 0.556): 2.58 ± 0.14 S/m | electrical conductivity ([2]; x2 = 0.61): 3.02 ± 0.14 S/m | electrical conductivity ([2]; x2 = 0.643): 3.14 ± 0.14 S/m | electrical conductivity ([2]; x2 = 0.677): 3.71 ± 0.14 S/m | electrical conductivity ([2]; x2 = 0.744): 4.6 ± 0.16 S/m | electrical conductivity ([2]; x2 = 0.75): 4.81 ± 0.16 S/m | electrical conductivity ([2]; x2 = 0.836): 6.82 ± 0.2 S/m | electrical conductivity ([2]; x2 = 0.842): 7.27 ± 0.2 S/m | electrical conductivity ([2]; x2 = 0.878): 9 ± 0.17 S/m | viscosity ([2]; x2 = 0.559): 7.514 ± 0.76 mPa·s | viscosity ([2]; x2 = 0.654): 5.344 ± 0.54 mPa·s | viscosity ([2]; x2 = 0.702): 4.549 ± 0.46 mPa·s | viscosity ([2]; x2 = 0.749): 3.616 ± 0.36 mPa·s | viscosity ([2]; x2 = 0.801): 2.795 ± 0.28 mPa·s | viscosity ([2]; x2 = 0.852): 2.048 ± 0.21 mPa·s | viscosity ([2]; x2 = 0.9): 1.486 ± 0.15 mPa·s | viscosity ([2]; x2 = 0.925): 1.149 ± 0.12 mPa·s | viscosity ([2]; x2 = 0.95): 0.834 ± 0.087 mPa·s | viscosity ([2]; x2 = 0.975): 0.547 ± 0.058 mPa·s | mass density ([2]; x2 = 0): 1134 ± 2 kg/m3 | mass density ([2]; x2 = 0.012): 1134 ± 2 kg/m3 | mass density ([2]; x2 = 0.028): 1134 ± 2 kg/m3 | mass density ([2]; x2 = 0.049): 1134 ± 2 kg/m3 | mass density ([2]; x2 = 0.074): 1133 ± 2 kg/m3 | mass density ([2]; x2 = 0.106): 1133 ± 2 kg/m3 | mass density ([2]; x2 = 0.131): 1132 ± 2 kg/m3 | mass density ([2]; x2 = 0.14): 1132 ± 2 kg/m3 | mass density ([2]; x2 = 0.147): 1132 ± 2 kg/m3 | mass density ([2]; x2 = 0.159): 1131 ± 2 kg/m3 | mass density ([2]; x2 = 0.187): 1130 ± 2 kg/m3 | mass density ([2]; x2 = 0.203): 1130 ± 2 kg/m3 | mass density ([2]; x2 = 0.224): 1129 ± 2 kg/m3 | mass density ([2]; x2 = 0.27): 1129 ± 2 kg/m3 | mass density ([2]; x2 = 0.271): 1128 ± 2 kg/m3 | mass density ([2]; x2 = 0.329): 1126 ± 4 kg/m3 | mass density ([2]; x2 = 0.363): 1126 ± 4 kg/m3 | mass density ([2]; x2 = 0.4): 1125 ± 4 kg/m3 | mass density ([2]; x2 = 0.457): 1124 ± 4 kg/m3 | mass density ([2]; x2 = 0.478): 1122 ± 4 kg/m3 | mass density ([2]; x2 = 0.555): 1121 ± 4 kg/m3 | mass density ([2]; x2 = 0.556): 1120 ± 4 kg/m3 | mass density ([2]; x2 = 0.559): 1120.7 ± 2 kg/m3 | mass density ([2]; x2 = 0.628): 1118 ± 4 kg/m3 | mass density ([2]; x2 = 0.643): 1116 ± 6 kg/m3 | mass density ([2]; x2 = 0.654): 1114.4 ± 2 kg/m3 | mass density ([2]; x2 = 0.692): 1113 ± 6 kg/m3 | mass density ([2]; x2 = 0.702): 1110.3 ± 2 kg/m3 | mass density ([2]; x2 = 0.744): 1106 ± 6 kg/m3 | mass density ([2]; x2 = 0.749): 1104.1 ± 2 kg/m3 | mass density ([2]; x2 = 0.771): 1105 ± 6 kg/m3 | mass density ([2]; x2 = 0.801): 1094.9 ± 2 kg/m3 | mass density ([2]; x2 = 0.836): 1087 ± 10 kg/m3 | mass density ([2]; x2 = 0.848): 1085 ± 10 kg/m3 | mass density ([2]; x2 = 0.852): 1081.2 ± 2 kg/m3 | mass density ([2]; x2 = 0.886): 1072 ± 10 kg/m3 | mass density ([2]; x2 = 0.9): 1062.3 ± 2 kg/m3 | mass density ([2]; x2 = 0.925): 1048.2 ± 2 kg/m3 | mass density ([2]; x2 = 0.95): 1029.7 ± 2 kg/m3 | mass density ([2]; x2 = 0.975): 1003.9 ± 2 kg/m3
